This note sets out measurements from article PMC9526870 (iScience, 2022).

The subject of the assay is SARS-CoV-2. In kind it is cell-based.

Take `CCC(CC)COC(=O)[C@H](C)N[P@](=O)(OC[C@H]1O[C@@](C#N)(c2ccc3c(N)ncnn23)[C@H](O)[C@@H]1O)Oc1ccccc1` [remdesivir]: the “SARS-CoV-2 fluorescence signal in host cells (in words)” value is given as “depletion of the SARS-CoV-2 fluorescence signal”.
